Test results taken from article PMC9146942 (International Journal of Molecular Sciences, 2022).
“Also recorded” adds a separate entry of the source. Where two headings read alike, the source gives them in different places.

Tests used:
human Panx1 channels = biological target: T1, human Panx1 channels (Homo sapiens, UniProt Q96RD7); assay: Panx1 channel activity assay (extracellular ATP release after osmotic shock); type: cell-based; details: for Effect on extracellular ATP release / Panx1 channel activity (in words): 45 min exposure, six concentrations BC/10 to BCx10; for Concentration with significant inhibition of Panx1 channel activity (extracellular ATP release): 45 min exposure (15 min preincubation + 30 min osmotic buffer), combination given as final lopinavir concentration
T1 construct: expressed in transfected cells; host or cells: Dubca cells, transduced, stably overexpressing human Panx1
T1 sequence (Q96RD7 whole entry): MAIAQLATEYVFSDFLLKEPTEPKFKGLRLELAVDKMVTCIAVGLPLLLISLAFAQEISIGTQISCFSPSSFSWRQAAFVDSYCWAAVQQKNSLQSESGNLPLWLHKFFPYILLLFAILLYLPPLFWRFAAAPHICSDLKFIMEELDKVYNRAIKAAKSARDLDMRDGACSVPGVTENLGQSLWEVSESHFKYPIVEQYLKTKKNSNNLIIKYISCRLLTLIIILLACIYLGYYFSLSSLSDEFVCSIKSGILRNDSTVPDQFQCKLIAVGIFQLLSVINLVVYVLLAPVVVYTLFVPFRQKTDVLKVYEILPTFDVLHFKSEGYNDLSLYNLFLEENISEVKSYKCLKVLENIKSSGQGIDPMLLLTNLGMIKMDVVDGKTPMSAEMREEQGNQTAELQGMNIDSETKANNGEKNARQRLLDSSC

[1] = system: transduced Dubca cells overexpressing human Panx1; details: dromedary camel
[2] = cited from earlier work
[3] = Cell viability (MTT) assay, 45 min exposure in classic buffer; details: dromedary camel, transduced Dubca cells overexpressing human Panx1
[4] = system: transduced Dubca cells overexpressing human Panx1; assay: Cell viability (MTT) assay, 24 h exposure, for CC10 determination; details: sigmoidal curve fit
Panx1 protein expression = Panx1 protein expression by immunoblot analysis; type: cell-based, human; details: 24 h exposure, BC, BC/2, BC/10; total Panx1 and glycosylated isoforms
Panx1 mRNA expression = Panx1 mRNA expression by RT-qPCR analysis; type: cell-based, human; details: 24 h exposure, BC, BC/2, BC/10
[5] = maximum plasma concentration extracted from literature and recalculated to µM, reference per cell

CCC(CC)COC(=O)[C@H](C)N[P@](=O)(OC[C@H]1O[C@@](C#N)(c2ccc3c(N)ncnn23)[C@H](O)[C@@H]1O)Oc1ccccc1 [Remdesivir]
Effect on extracellular ATP release / Panx1 channel activity (in words) (human Panx1 channels): comparable concentration-dependent trend | CC10 (concentration inducing 10% of cell death) [1]: >100 µM | Cmax [2, 5]: 9.03 µM

CC[C@H]1OC(=O)[C@H](C)[C@@H](O[C@H]2C[C@@](C)(OC)[C@@H](O)[C@H](C)O2)[C@H](C)[C@@H](O[C@@H]2O[C@H](C)C[C@H](N(C)C)[C@H]2O)[C@](C)(O)C[C@@H](C)CN(C)[C@H](C)[C@@H](O)[C@]1(C)O [Azithromycin (dihydrate), azithromycin dihydrate]
Cmax [2, 5]: 0.52 µM | viability at 45 min, 590 µM [3]: 74% | CC10 (concentration inducing 10% of cell death) [4]: 59 µM

NC(=O)c1nc(F)c[nH]c1=O [Favipiravir, favipiravir]
Effect on extracellular ATP release / Panx1 channel activity (in words) (human Panx1 channels): significant decrease in extracellular ATP release; also recorded: inhibit Panx1 channel activity | Effect on Panx1 protein levels (Panx1 protein expression): without affecting mRNA or protein levels | Effect on Panx1 mRNA levels (Panx1 mRNA expression): without affecting mRNA or protein levels | Cmax ([2]; in vivo): 53.4 µM | CC10 (concentration inducing 10% of cell death) [4]: >200 µM

CCN(CC)CCCC(C)Nc1ccnc2cc(Cl)ccc12 (stereo not drawn) [Chloroquine (diphosphate), chloroquine diphosphate]
CC10 (concentration inducing 10% of cell death) [1]: 18 µM | Cmax [2, 5]: 0.81 µM

C[C@@H]1C[C@H]2[C@@H]3CCC4=CC(=O)C=C[C@]4(C)[C@@]3(F)[C@@H](O)C[C@]2(C)[C@@]1(O)C(=O)CO [Dexamethasone, dexamethasone]
CC10 (concentration inducing 10% of cell death) [1]: >200 µM | Cmax [2, 5]: 0.63 µM

CCN(CCO)CCCC(C)Nc1ccnc2cc(Cl)ccc12 (stereo not drawn) [Hydroxychloroquine (sulphate), hydroxychloroquine sulphate]
Concentration with significant inhibition of Panx1 channel activity (extracellular ATP release) (human Panx1 channels): 23 µM | Effect on extracellular ATP release / Panx1 channel activity (in words) (human Panx1 channels; listed as hydroxychloroquine): inhibit Panx1 channel activity | Effect on extracellular ATP release / Panx1 channel activity (in words) (human Panx1 channels; listed as hydroxychloroquine sulphate): significant decrease in extracellular ATP release | Effect on Panx1 protein levels (Panx1 protein expression): without affecting mRNA or protein levels | Effect on Panx1 mRNA levels (Panx1 mRNA expression): without affecting mRNA or protein levels | Cmax [2, 5]: 0.97 µM | CC10 (concentration inducing 10% of cell death) [4]: 23 µM

Cc1cccc(C)c1OCC(=O)N[C@@H](Cc1ccccc1)[C@@H](O)C[C@H](Cc1ccccc1)NC(=O)[C@H](C(C)C)N1CCCNC1=O [Lopinavir, lopinavir]
Concentration with significant inhibition of Panx1 channel activity (extracellular ATP release) (human Panx1 channels): 85 µM | Effect on extracellular ATP release / Panx1 channel activity (in words) (human Panx1 channels): significant decrease in extracellular ATP release; also recorded: inhibit Panx1 channel activity | Effect on Panx1 protein levels (Panx1 protein expression): without affecting mRNA or protein levels | Effect on Panx1 mRNA levels (Panx1 mRNA expression): without affecting mRNA or protein levels | CC10 (concentration inducing 10% of cell death) [4]: 17 µM

CC(C)c1nc(CN(C)C(=O)N[C@H](C(=O)N[C@@H](Cc2ccccc2)C[C@H](O)[C@H](Cc2ccccc2)NC(=O)OCc2cncs2)C(C)C)cs1 [Ritonavir, ritonavir]
Effect on extracellular ATP release / Panx1 channel activity (in words) (human Panx1 channels): did not decrease extracellular ATP release | Cmax [2, 5]: 22.5 µM | CC10 (concentration inducing 10% of cell death) [4]: 12 µM
